Experimental data from patent publication US4921984A, “Novel platinum complexes” (Nippon Kayaku Kabushiki Kaisha, priority 1985, dated 1990).

Columns and labels:
[1] = tested on: mouse leukemia L1210 cells; experiment: Growth inhibition test on cultured mouse leukemia L1210 cells; assay type: cell-based; details: RPMI 1640 with 10% fetal calf serum
Description: Mouse leukemia L1210 cells were cultured in a RPMI 1640 medium containing 10% of fetal calf serum.

[2] = tested on: mouse leukemia L1210; experiment: Antitumor activity test on mouse leukemia L1210 in vivo; details: for max (T/C): L1210, average survival time treated/control ×100, i.p. once a day for 5 days; for Opt. dose: L1210, dose giving max (T/C); for Opt. dose / LD50: i.p. once a day for 5 days; for LD50: L1210-bearing CDF1 mice
Description: Mice of compound-non-treated group (control group) were administered with physiological saline solution in the same manner. The average survival times of the compound-treated group and the control group (abbreviated as T and C, respectively) were measured and T/C percentage (T/C×100) was calculated from the following equation. [formula]
In Table 4, max (T/C) means the maximum value of T/C and optimum dose (opt. dose) means an administration amount giving the max namely, an optimum administration amount.

SMILES	IC50 [1] [µg/mL]	max (T/C) [2] [%]	Opt. dose [2] [mg/kg]	LD50 [2] [mg/kg]	Solubility in physiological saline solution [mg/ml]	Solubility in water [µg/mL]
CC1CCC[NH2+][Pt-2]([Cl])([Cl])[NH2+]1 (racemic) [Compound No. 4]	0.20	225	2	2.4	> 2	–
CC1CCC[NH2+][Pt-2]2([NH2+]1)[O]C(=O)C(C)(C)C(=O)[O]2 (racemic) [Compound No. 8, cis-Dimethylmalonato-1-methyl-1,4-butanediamine platinum]	0.90	189	64	–	–	–
CCC1C(=O)[O][Pt-2]2([NH2+]CCCC(C)[NH2+]2)[O]C1=O (racemic) [Compound No. 9, cis-Ethylmalonato-1-methyl-1,4-butanediamine platinum]	2.40	222	64	96.0	–	> 10000
CCC1CCC[NH2+][Pt-2]([Cl])([Cl])[NH2+]1 (racemic) [Compound No. 10, cis-Dichloro-1-ethyl-1,4-butanediamine platinum]	0.35	210	4	6.0	> 2	–
CC1CC[NH2+][Pt-2]([Cl])([Cl])[NH2+]C1 (racemic) [Compound No. 13, cis-Dichloro-2-methyl-1,4-butanediamine platinum]	0.10	187	2	4.2	> 2	–
CC1CC[NH2+][Pt-2]2([NH2+]C1)[O]C(=O)CC(=O)[O]2 (racemic) [Compound No. 14, cis-Malonato-2-methyl-1,4-butanediamine platinum]	0.74	346	32	–	–	–
CC1CC[NH2+][Pt-2]2([NH2+]C1)[O]C(=O)C1(CCOCC1)C(=O)[O]2 (racemic) [Compound No. 16, cis-4-Oxacyclohexane-1,1-dicarboxylato-2-methyl-1,4-butanediamine platinum]	0.43	167	8	12.0	–	> 15000
CC1CC[NH2+][Pt-2]2([NH2+]C1)[O]C(=O)C(C)(C)C(=O)[O]2 (racemic) [Compound No. 17, cis-Dimethylmalonato-2-methyl-1,4-butanediamine platinum]	0.50	238	32	–	–	–
CCC1C(=O)[O][Pt-2]2([NH2+]CCC(C)C[NH2+]2)[O]C1=O (racemic) [Compound No. 18, cis-Ethylmalonato-2-methyl-1,4-butanediamine platinum]	0.84	264	16	24.0	–	> 10000
CCC1CC[NH2+][Pt-2]([Cl])([Cl])[NH2+]C1 (racemic) [Compound No. 29, cis-Dichloro-2-ethyl-1,4-butanediamine platinum]	0.05	261	2	3.0	> 2	–
CCC1CC[NH2+][Pt-2]2([NH2+]C1)[O]C(=O)C(=O)[O]2 (racemic) [Compound No. 30, cis-Oxalato-2-ethyl-1,4-butanediamine platinum]	0.06	253	8	–	–	–
CCC1CC[NH2+][Pt-2]2([NH2+]C1)[O]C(=O)C(C)(C)C(=O)[O]2 (racemic) [Compound No. 33, cis-Dimethylmalonato-2-ethyl-1,4-butanediamine platinum]	0.23	–	–	–	–	–
[Cl][Pt-2]1([Cl])[NH2+]CCCC[NH2+]1 [Compound No. 1, cis-Dichloro-1,4-butanediamine platinum]	0.33	203	2	4.8	> 2	–
O=C1[O][Pt-2]2([NH2+]CCCC[NH2+]2)[O]C(=O)C12CCC2 [Compound No. 2, cis-Cyclobutane-1,1-dicarboxylato-1,4-butanediamine Platinum]	0.88	182	32	48.0	–	–
O=C1[O][Pt-2]2([NH2+]CCCC[NH2+]2)[O]C(=O)C12CCOCC2 [Compound No. 3, cis-4-Oxacyclohexane-1,1-dicarboxylato-1,4-butanediamine platinum]	0.65	132	8	8.4	–	> 10000
CC(N)CCCN.O=C([O-])C(=O)[O-].[Pt+2] (stereo not drawn) [Compound No. 5, cis-Oxalato-1-methyl-1,4-butanediamine platinum]	0.29	273	4	–	–	–

SMILES	IC50 [1] [µg/mL]	max (T/C) [2] [%]	Opt. dose [2] [mg/kg]	LD50 [2] [mg/kg]	Solubility in physiological saline solution [mg/ml]	Solubility in water [µg/mL]
CC(N)CCCN.O=C([O-])CC(=O)[O-].[Pt+2] (stereo not drawn) [Compound No. 6, cis-Malonato-1-methyl-1,4-butanediamine platinum]	0.76	359	32	–	–	–
CC(N)CCCN.O=C([O-])C1(C(=O)[O-])CCC1.[Pt+2] [Compound No. 7, cis-Cyclobutane-1,1-dicarboxylato-1-methyl-1,4-butanediamine platinum]	2.80	176	64	–	–	–
CCC(N)CCCN.O=C([O-])C1(C(=O)[O-])CCC1.[Pt+2] [Compound No. 11, cis-Cyclobutane-1,1-dicarboxylato-1-ethyl-1,4-butanediamine platinum]	4.70	139	64	–	–	> 3000
CCC(N)CCCN.O=C([O-])C1(C(=O)[O-])CCOCC1.[Pt+2] [Compound No. 12, cis-4-Oxacyclohexane-1,1-dicarboxylato-1-ethyl-1,4-butanediamine platinum]	1.05	181	64	–	–	–
CC1(C)CC[NH2+][Pt-2]([Cl])([Cl])[NH2+]C1 [Compound No. 19, cis-Dichloro-2,2-dimethyl-1,4-butanediamine platinum]	0.20	359	4	6.0	> 2	–
CC1(C)CC[NH2+][Pt-2]2([NH2+]C1)[O]C(=O)C(=O)[O]2 [Compound No. 20, cis-Oxalato-2,2-dimethyl-1,4-butanediamine platinum]	0.37	272	8	–	–	–
CC1(C)CC[NH2+][Pt-2]2([NH2+]C1)[O]C(=O)CC(=O)[O]2 [Compound No. 21, cis-Malonato-2,2-dimethyl-1,4-butanediamine platinum]	0.72	301	32	–	–	–
CC(C)(CN)CCN.O=C([O-])C1(C(=O)[O-])CCC1.[Pt+2] [Compound No. 22, cis-Cyclobutane-1,1-dicarboxylato-2,2-dimethyl-1,4-butanediamine platinum]	2.20	320	128	–	–	> 3000
CC1(C)CC[NH2+][Pt-2]2([NH2+]C1)[O]C(=O)C1(CCOCC1)C(=O)[O]2 [Compound No. 23, cis-4-Oxacyclohexane-1,1-dicarboxylato-2,2-dimethyl-1,4-butanediamine platinum]	0.44	159	32	–	–	> 3000
CC1(C)CC[NH2+][Pt-2]2([NH2+]C1)[O]C(=O)C(C)(C)C(=O)[O]2 [Compound No. 24, cis-Dimethylmalonato-2,2-dimethyl-1,4-butanediamine platinum]	0.78	253	64	–	–	–
CC1(C)CCC[NH2+][Pt-2]2([NH2+]1)[O]C(=O)C(=O)[O]2 [Compound No. 26, cis-Oxalato-1,1-dimethyl-1,4-butanediamine platinum]	0.30	–	–	–	–	–
CC1(C)CCC[NH2+][Pt-2]2([NH2+]1)[O]C(=O)C1(CCC1)C(=O)[O]2 [Compound No. 27, cis-Cyclobutane-1,1-dicarboxylato-1,1-dimethyl-1,4-butanediamine platinum]	–	–	–	–	–	> 10000
CC(C)(C(=O)[O-])C(=O)[O-].CC(C)(N)CCCN.[Pt+2] [Compound No. 28, cis-Dimethylmalonato-1,1-dimethyl-1,4-butanediamine platinum]	4.50	–	–	–	–	–
CCC(CN)CCN.O=C([O-])CC(=O)[O-].[Pt+2] (stereo not drawn) [Compound No. 31, cis-Malonato-2-ethyl-1,4-butanediamine platinum]	0.66	–	–	–	–	–
CCC(CN)CCN.O=C([O-])C1(C(=O)[O-])CCC1.[Pt+2] [Compound No. 32, cis-Cyclobutane-1,1-dicarboxylato-2-ethyl-1,4-butanediamine platinum]	0.67	275	32	–	–	–
